# ChEMBL document CHEMBL5608191, “Structure-based discovery of novel piperidine-biphenyl-DAPY derivatives as non-nucleoside reverse transcriptase inhibitors featuring improved potency, safety, and selectivity: From piperazine-biphenyl-DAPYs to piperidine-biphenyl-DAPYs” (Eur J Med Chem, 2024)
# Experiments:
# [1] = Cytotoxicity against human MT4 cells assessed as reduction in cell viability incubated for 5 days by MTT assay; type: toxicity, cell-based; settings: time 5 day
# [2] = tested on: Human immunodeficiency virus 1; assay: Antiviral activity against HIV-1 harboring RT K103N mutant infected in human MT4 cells assessed as protection against virus-induced cytopathic effect incubated for 5 days by MTT assay; type: functional, organism-based; settings: Human immunodeficiency virus 1, MT4, 120 h
# [3] = tested on: Human immunodeficiency virus 1; assay: Antiviral activity against HIV-1 harboring RT E138K mutant infected in human MT4 cells assessed as protection against virus-induced cytopathic effect incubated for 5 days by MTT assay; type: functional, organism-based; settings: Human immunodeficiency virus 1, MT4, 120 h
# [4] = Selectivity index, ratio of CC50 for human MT4 cells to EC50 for wild-type HIV-1 IIIB infected in human MT4 cells; type: toxicity, cell-based; settings: read-out: Ratio CC50/EC50
# [5] = tested on: Human immunodeficiency virus 1; assay: Antiviral activity against HIV-1 harboring RT Y181C mutant infected in human MT4 cells assessed as protection against virus-induced cytopathic effect incubated for 5 days by MTT assay; type: functional, organism-based; settings: Human immunodeficiency virus 1, MT4, 120 h
# [6] = tested on: Human immunodeficiency virus 1; assay: Antiviral activity against HIV-1 harboring RT L100I mutant infected in human MT4 cells assessed as protection against virus-induced cytopathic effect incubated for 5 days by MTT assay; type: functional, organism-based; settings: Human immunodeficiency virus 1, MT4, 120 h
# [7] = tested on: Human immunodeficiency virus 1; assay: Antiviral activity against HIV-1 harboring RT Y188L mutant infected in human MT4 cells assessed as protection against virus-induced cytopathic effect incubated for 5 days by MTT assay; type: functional, organism-based; settings: Human immunodeficiency virus 1, MT4, 120 h
# [8] = biological target: Human immunodeficiency virus type 1 reverse transcriptase (Human immunodeficiency virus 1, UniProt Q72547); assay: Inhibition of recombinant wild-type HIV-1 reverse transcriptase incubated for 40 mins by fluorescence based assay
# [9] = tested on: Human immunodeficiency virus 1; assay: Antiviral activity against wild-type HIV-1 IIIB infected in human MT4 cells assessed as protection against virus-induced cytopathic effect incubated for 5 days by MTT assay; type: functional, organism-based; settings: Human immunodeficiency virus 1, IIIB, MT4, 120 h
# [10] = Solubility of compound in phosphate buffer at pH 2 by HPLC analysis; type: physicochemical
# [11] = Solubility of compound in phosphate buffer at pH 7 by HPLC analysis; type: physicochemical
# [12] = Solubility of compound in phosphate buffer at pH 7.4 by HPLC analysis; type: physicochemical
# [13] = Solubility of compound in water by HPLC analysis; type: physicochemical
Structure (SMILES),CC50 at 120 h [1] [nM],EC50 [2] [nM],EC50 [3] [nM],selectivity ratio [4],EC50 [5] [nM],EC50 [6] [nM],EC50 [7] [nM],IC50 [8] [nM],EC50 [9] [nM],solubility [10] [µg/mL],solubility [11] [µg/mL],solubility [12] [µg/mL],solubility [13] [µg/mL]
CCOC(=O)c1cnc(NC2CCN(Cc3ccc(C(N)=O)cc3)CC2)nc1Oc1c(C)cc(-c2ccc(C#N)cc2)cc1C,191000,17,50,17400,48,45,94,596,11,–,–,–,–
CCOC(=O)c1cnc(NC2CCN(Cc3ccc(S(N)(=O)=O)cc3)CC2)nc1Oc1c(C)cc(-c2ccc(C#N)cc2)cc1C,> 195000,46,83,> 5640,202,212,538,736,35,–,–,–,–
CCOC(=O)c1cnc(NC2CCN(Cc3ccc(C(=O)NC)cc3)CC2)nc1Oc1c(C)cc(-c2ccc(C#N)cc2)cc1C.Cl,–,–,–,–,–,–,–,–,–,103,< 1,< 1,336
CCOC(=O)c1cnc(NC2CCN(Cc3ccc(C#N)cc3)CC2)nc1Oc1c(C)cc(-c2ccc(C#N)cc2)cc1C,131000,–,–,604,–,–,–,782,217,–,–,–,–
CCOC(=O)c1cnc(NC2CCN(Cc3cccnc3)CC2)nc1Oc1c(C)cc(-c2ccc(C#N)cc2)cc1C,> 222000,53,70,> 6430,99,272,431,718,35,–,–,–,–
CCOC(=O)c1cnc(NC2CCN(Cc3ccc(C(=O)NC)cc3)CC2)nc1Nc1c(C)cc(-c2ccc(C#N)cc2)cc1C.O=P(O)(O)O,–,–,–,–,–,–,–,–,–,136,< 1,< 1,77.2
CCOC(=O)c1cnc(NC2CCN(Cc3ccc(F)c(F)c3)CC2)nc1Oc1c(C)cc(-c2ccc(C#N)cc2)cc1C,194000,–,–,967,–,–,–,522,201,–,–,–,–
CCOC(=O)c1cnc(NC2CCN(Cc3ccc(CO)cc3)CC2)nc1Oc1c(C)cc(-c2ccc(C#N)cc2)cc1C,192000,–,–,4740,–,–,–,514,40,–,–,–,–
CCOC(=O)c1cnc(NC2CCN(Cc3ccc(F)cc3)CC2)nc1Oc1c(C)cc(-c2ccc(C#N)cc2)cc1C,185000,115,154,4180,158,257,790,582,44,–,–,–,–
CCOC(=O)c1cnc(NC2CCN(Cc3ccc([N+](=O)[O-])cc3)CC2)nc1Oc1c(C)cc(-c2ccc(C#N)cc2)cc1C,164000,–,–,4390,–,–,–,410,37,–,–,–,–
CCOC(=O)c1cnc(NC2CCN(Cc3cccc(C(N)=O)c3)CC2)nc1Oc1c(C)cc(-c2ccc(C#N)cc2)cc1C,11500,44,68,757,76,66,342,669,15,–,–,–,–
CCOC(=O)c1cnc(NC2CCN(Cc3ccccn3)CC2)nc1Oc1c(C)cc(-c2ccc(C#N)cc2)cc1C,> 222000,43,164,> 12200,118,128,313,676,18,–,–,–,–
CCOC(=O)c1cnc(NC2CCN(Cc3ccccc3C#N)CC2)nc1Oc1c(C)cc(-c2ccc(C#N)cc2)cc1C,196000,–,–,3940,–,–,–,327,50,–,–,–,–
CCOC(=O)c1cnc(N2CCN(Cc3cccc(C(N)=O)c3)CC2)nc1Oc1c(C)cc(-c2ccc(C#N)cc2)cc1C,14800,–,–,4,–,–,–,–,3360,–,–,–,–
Br.CCOC(=O)c1cnc(NC2CCN(Cc3ccc(C(=O)NC)cc3)CC2)nc1Nc1c(C)cc(-c2ccc(C#N)cc2)cc1C,–,–,–,–,–,–,–,–,–,141,< 1,< 1,91.4
CCOC(=O)c1cnc(NC2CCN(Cc3ccc(OC)cc3)CC2)nc1Oc1c(C)cc(-c2ccc(C#N)cc2)cc1C,125000,–,–,3740,–,–,–,622,33,–,–,–,–
CCOC(=O)c1cnc(NC2CCN(Cc3ccc(F)cc3F)CC2)nc1Oc1c(C)cc(-c2ccc(C#N)cc2)cc1C,176000,–,–,3280,–,–,–,634,54,–,–,–,–
Cc1ccnc2c1NC(=O)c1cccnc1N2C1CC1 [NEVIRAPINE],> 15000,–,153,–,–,2000,> 10000,–,–,–,–,–,–

Structure (SMILES),CC50 at 120 h [1] [nM],EC50 [2] [nM],EC50 [3] [nM],selectivity ratio [4],EC50 [5] [nM],EC50 [6] [nM],EC50 [7] [nM],IC50 [8] [nM],EC50 [9] [nM],solubility [10] [µg/mL],solubility [11] [µg/mL],solubility [12] [µg/mL],solubility [13] [µg/mL]
CCOC(=O)c1cnc(NC2CCN(Cc3ccc(C(=O)NC)cc3)CC2)nc1Nc1c(C)cc(-c2ccc(C#N)cc2)cc1C.O=S(=O)(O)O,–,–,–,–,–,–,–,–,–,147,< 1,< 1,134
CCOC(=O)c1cnc(NC2CCN(Cc3ccc(C(F)(F)F)cc3)CC2)nc1Oc1c(C)cc(-c2ccc(C#N)cc2)cc1C,> 199000,–,–,> 472,–,–,–,990,421,–,–,–,–
O=C1Nc2ccc(Cl)cc2[C@@](C#CC2CC2)(C(F)(F)F)O1 [EFAVIRENZ],> 6350,77,8,–,8,39,–,–,–,–,–,–,–
CCOC(=O)c1cnc(NC2CCN(Cc3ccc(OC(F)(F)F)cc3)CC2)nc1Oc1c(C)cc(-c2ccc(C#N)cc2)cc1C,175000,–,–,923,–,–,–,2040,189,–,–,–,–
CCOC(=O)c1cnc(NC2CCN(Cc3ccc(B(O)O)cc3)CC2)nc1Oc1c(C)cc(-c2ccc(C#N)cc2)cc1C,20900,–,–,439,–,–,–,1300,48,–,–,–,–
CCOC(=O)c1cnc(NC2CCN(Cc3ccc(S(C)(=O)=O)cc3)CC2)nc1Oc1c(C)cc(-c2ccc(C#N)cc2)cc1C,27900,13,105,2290,51,57,67,598,13,–,–,–,–
Cc1cc(C#N)cc(C)c1Oc1nc(Nc2ccc(C#N)cc2)nc(N)c1Br [ETRAVIRINE],> 4610,–,13,–,–,–,24,–,–,–,< 1,< 1,–
CCOC(=O)c1cnc(NC2CCN(Cc3cccc(C(=O)NC)c3)CC2)nc1Oc1c(C)cc(-c2ccc(C#N)cc2)cc1C,20400,48,51,556,67,74,246,686,37,–,–,–,–
CCOC(=O)c1cnc(NC2CCN(Cc3ccccc3F)CC2)nc1Oc1c(C)cc(-c2ccc(C#N)cc2)cc1C,189000,–,–,4040,–,–,–,769,47,–,–,–,–
Cc1cc(/C=C/C#N)cc(C)c1Nc1ccnc(Nc2ccc(C#N)cc2)n1 [RILPIVIRINE],–,–,–,–,–,–,–,35,–,–,< 1,< 1,–
CCOC(=O)c1cnc(NC2CCN(Cc3ccc(C)cc3)CC2)nc1Oc1c(C)cc(-c2ccc(C#N)cc2)cc1C,178000,–,–,5080,–,–,–,890,35,–,–,–,–
CCOC(=O)c1cnc(NC2CCN(Cc3ccc(Cl)cc3)CC2)nc1Oc1c(C)cc(-c2ccc(C#N)cc2)cc1C,141000,–,–,728,–,–,–,314,194,–,–,–,–
CCOC(=O)c1cnc(NC2CCN(Cc3ccc(/C=C/C(=O)OC)cc3)CC2)nc1Oc1c(C)cc(-c2ccc(C#N)cc2)cc1C,> 194000,–,–,> 2450,–,–,–,535,79,–,–,–,–
CCOC(=O)c1cnc(NC2CCN(Cc3ccncc3)CC2)nc1Oc1c(C)cc(-c2ccc(C#N)cc2)cc1C,60000,13,73,3720,66,73,87,527,16,–,–,–,–
CCOC(=O)c1cnc(NC2CCN(Cc3cccc(C#N)c3)CC2)nc1Oc1c(C)cc(-c2ccc(C#N)cc2)cc1C,178000,65,81,4960,134,342,389,530,36,–,–,–,–
CCOC(=O)c1cnc(NC2CCN(Cc3ccc(S(=O)(=O)NC)cc3)CC2)nc1Oc1c(C)cc(-c2ccc(C#N)cc2)cc1C,10900,26,38,460,72,35,177,744,24,–,–,–,–
Cc1cn([C@H]2C[C@H](N=[N+]=[N-])[C@@H](CO)O2)c(=O)[nH]c1=O [ZIDOVUDINE],> 7490,20,39,> 223,21,8,16,–,34,–,–,–,–
